Source: patent US10138227B2, “Heteroaryl substituted pyridines and methods of use” (AbbVie S.à.r.l., priority 2016, dated 2018)

Columns and labels:
Type in all cases: cell-based
CFTR ΔF508 mutant = target: T1, CFTR ΔF508 mutant (Homo sapiens, UniProt P13569, DEL508-508); assay: YFP-halide influx assay for the CFTR-ΔF508 mutation; details: CFBE41o- cells expressing CFTR ΔF508 and YFP reporter, forskolin 10.67 μM; for EC50: (1-F/F0) vs concentration
T1 construct: expressed in transfected cells; host or cells: CFBE41o- cells transduced with adenoviral vectors
T1 sequence (P13569 with tags, fused parts or gaps DEL508-508): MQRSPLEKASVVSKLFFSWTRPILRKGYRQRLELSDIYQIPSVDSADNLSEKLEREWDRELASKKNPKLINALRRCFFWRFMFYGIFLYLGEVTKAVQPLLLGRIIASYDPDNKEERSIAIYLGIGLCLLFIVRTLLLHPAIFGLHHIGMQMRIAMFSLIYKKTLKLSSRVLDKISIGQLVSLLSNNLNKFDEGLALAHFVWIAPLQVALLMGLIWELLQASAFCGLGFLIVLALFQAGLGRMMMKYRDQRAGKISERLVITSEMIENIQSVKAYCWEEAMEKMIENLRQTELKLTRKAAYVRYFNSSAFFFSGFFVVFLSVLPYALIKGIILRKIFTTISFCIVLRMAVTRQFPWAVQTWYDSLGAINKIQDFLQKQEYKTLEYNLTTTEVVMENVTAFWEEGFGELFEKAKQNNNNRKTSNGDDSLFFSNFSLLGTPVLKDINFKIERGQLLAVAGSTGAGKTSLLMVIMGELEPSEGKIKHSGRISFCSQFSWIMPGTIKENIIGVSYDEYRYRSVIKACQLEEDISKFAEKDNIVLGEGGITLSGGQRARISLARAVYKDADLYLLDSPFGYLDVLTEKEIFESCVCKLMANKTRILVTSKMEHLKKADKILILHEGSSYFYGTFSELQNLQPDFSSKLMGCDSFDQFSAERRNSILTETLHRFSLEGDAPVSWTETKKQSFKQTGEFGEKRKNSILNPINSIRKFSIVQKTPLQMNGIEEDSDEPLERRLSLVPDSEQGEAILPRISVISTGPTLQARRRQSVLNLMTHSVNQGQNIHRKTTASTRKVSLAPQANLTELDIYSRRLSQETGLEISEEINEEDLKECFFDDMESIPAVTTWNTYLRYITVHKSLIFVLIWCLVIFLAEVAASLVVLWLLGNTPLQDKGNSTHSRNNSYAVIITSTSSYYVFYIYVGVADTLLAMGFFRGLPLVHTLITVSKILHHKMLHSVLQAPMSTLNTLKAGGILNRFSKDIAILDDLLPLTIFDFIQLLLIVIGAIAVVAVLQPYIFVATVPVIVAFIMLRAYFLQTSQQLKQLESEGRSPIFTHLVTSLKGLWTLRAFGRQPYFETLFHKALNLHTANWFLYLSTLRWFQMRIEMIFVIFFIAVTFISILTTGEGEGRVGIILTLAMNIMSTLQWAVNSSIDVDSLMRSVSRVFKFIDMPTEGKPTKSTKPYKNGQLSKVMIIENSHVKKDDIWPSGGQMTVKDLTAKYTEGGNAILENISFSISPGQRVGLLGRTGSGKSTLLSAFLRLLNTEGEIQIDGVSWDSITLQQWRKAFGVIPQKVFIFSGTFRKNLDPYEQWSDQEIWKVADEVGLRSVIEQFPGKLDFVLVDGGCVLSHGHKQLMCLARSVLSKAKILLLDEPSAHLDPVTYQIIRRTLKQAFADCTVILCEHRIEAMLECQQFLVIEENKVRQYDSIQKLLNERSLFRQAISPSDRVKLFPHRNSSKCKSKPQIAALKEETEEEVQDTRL
Method in brief: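 CFBE41o- cells were adenovirally transduced with CFTR ΔF508 and YFP H148Q/I152L/F47L, then corrected 24 h at 27 °C or with a CFTR modulator 24 h at 37 °C. Iodide-induced quench was recorded over 2 min. EC50 was derived from 1-F/F0 (36 s vs pre-injection) plotted against compound concentration.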

CFTR G551D mutant = target: T2, CFTR G551D mutant (Homo sapiens, UniProt P13569, G551D); assay: YFP-halide influx assay for the CFTR-G551D mutation; details: HEK293 cells expressing CFTR G551D and YFP reporter; forskolin 10.67 μM
T2 construct: expressed in transfected cells; host or cells: HEK293 cells, reverse-transfected with plasmid vectors
T2 sequence (P13569 whole entry G551D): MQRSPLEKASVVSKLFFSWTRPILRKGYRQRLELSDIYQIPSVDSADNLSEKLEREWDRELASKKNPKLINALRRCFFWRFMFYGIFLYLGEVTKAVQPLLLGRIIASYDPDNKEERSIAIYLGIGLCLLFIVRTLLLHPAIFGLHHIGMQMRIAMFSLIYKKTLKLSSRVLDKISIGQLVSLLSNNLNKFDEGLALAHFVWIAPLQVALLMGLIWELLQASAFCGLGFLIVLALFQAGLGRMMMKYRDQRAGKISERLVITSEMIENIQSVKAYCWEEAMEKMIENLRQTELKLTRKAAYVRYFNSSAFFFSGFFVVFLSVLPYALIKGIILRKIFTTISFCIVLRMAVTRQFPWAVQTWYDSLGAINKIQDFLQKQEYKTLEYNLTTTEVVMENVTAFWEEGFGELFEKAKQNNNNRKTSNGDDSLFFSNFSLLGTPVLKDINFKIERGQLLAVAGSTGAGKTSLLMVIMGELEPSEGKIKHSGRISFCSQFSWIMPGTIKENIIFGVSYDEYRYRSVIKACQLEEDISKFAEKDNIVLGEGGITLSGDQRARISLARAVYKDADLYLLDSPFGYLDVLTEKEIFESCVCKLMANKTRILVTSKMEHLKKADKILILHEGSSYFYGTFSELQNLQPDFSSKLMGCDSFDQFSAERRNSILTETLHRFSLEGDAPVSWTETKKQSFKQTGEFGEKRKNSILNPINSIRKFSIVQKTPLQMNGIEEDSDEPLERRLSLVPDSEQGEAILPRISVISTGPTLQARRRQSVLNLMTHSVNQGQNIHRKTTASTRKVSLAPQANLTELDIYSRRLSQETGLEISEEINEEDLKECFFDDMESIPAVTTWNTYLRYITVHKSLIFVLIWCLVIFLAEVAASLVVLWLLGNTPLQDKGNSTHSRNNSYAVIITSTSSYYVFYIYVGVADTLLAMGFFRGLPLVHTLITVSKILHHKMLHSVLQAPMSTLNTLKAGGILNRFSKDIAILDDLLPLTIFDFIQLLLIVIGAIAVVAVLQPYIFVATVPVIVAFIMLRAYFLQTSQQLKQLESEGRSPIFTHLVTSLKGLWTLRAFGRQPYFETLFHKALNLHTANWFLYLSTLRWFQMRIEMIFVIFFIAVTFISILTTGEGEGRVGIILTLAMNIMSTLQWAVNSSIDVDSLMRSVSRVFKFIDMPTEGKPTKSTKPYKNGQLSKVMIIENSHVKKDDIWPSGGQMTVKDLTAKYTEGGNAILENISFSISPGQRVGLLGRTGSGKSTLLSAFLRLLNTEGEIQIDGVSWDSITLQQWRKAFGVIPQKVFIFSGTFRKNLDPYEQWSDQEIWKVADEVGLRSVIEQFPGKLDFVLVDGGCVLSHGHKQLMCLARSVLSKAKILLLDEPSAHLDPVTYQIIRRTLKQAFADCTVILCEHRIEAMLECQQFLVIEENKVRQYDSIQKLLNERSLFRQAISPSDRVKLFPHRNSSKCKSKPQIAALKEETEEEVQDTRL
Description: (§1) The YFP halide influx assay measured the functionality of the cystic fibrosis Transmembrane Conductance regulator (CFTR) channels. The assay was used to evaluate the capacity of compounds to increase the channel opening of existing mutant CFTR channels in the membrane. It makes use of the observation that the yellow fluorescent protein (YFP) variant YFP H148Q, I152L, F47L has its fluorescence substantially quenched by halide ions like Cl^− and I^− (Galietta, L. J. V., Haggie, P. M., Verkman, A. S., 2001. Green fluorescent protein-based halide indicators with improved chloride and iodide affinities. FEBS Lett. 499, 220-224. doi:10.1016/S0014-5793(01)02561-3).
(§2) For this purpose, HEK293-cells were seeded in 96 well plates. During seeding, the cells were reverse-transfected with plasmid vectors that direct the expression of the CFTR G551D mutant and of the YFP reporter. Cells were incubated at 37° C., 5% CO2 for 24 hours so as to allow for sufficient expression of the CFTR protein.
(§3) The I^−-induced quenching of fluorescence was recorded immediately after injection of I^− for 7 seconds. The capacity of a compound to increase the channel opening was directly correlated with the decrease in fluorescence, and was expressed as (1-(fluorescence after 7 seconds (F)/fluorescence before injection (F0))) and an EC50 was derived from a (1−F/F0) vs compound concentration plot.

CFTR-G178R = target: T3, CFTR-G178R (Homo sapiens, UniProt P13569, G178R); assay: YFP-halide influx assay for the CFTR-G178R
T3 construct: expressed in transfected cells; HEK293 with plasmid vectors inferred from the G551D protocol, to which the assay is called similar
T3 sequence (P13569 whole entry G178R): as the sequence (P13569 whole entry G551D) above, with G178R, D551G counted along it
Description: as §1, §2, §3
(§4) Similar YHA assays were developed for other channel gating defective or channel conductance defective CFTR mutants to determine effect of compound on channel activity. Examples of mutants are G178R, G1349D, S549N, R117H, R334W. This assay is also used for additional class I CFTR mutants, including G542X, W1282X; class II mutants including N1303K, and for class III mutants including S1251N; or wild-type CFTR.

CFTR-G1349D = target: T4, CFTR-G1349D (Homo sapiens, UniProt P13569, G1349D); assay: YFP-halide influx assay for the CFTR-G1349D
T4 construct: expressed in transfected cells; HEK293 with plasmid vectors inferred from the G551D protocol, to which the assay is called similar
T4 sequence (P13569 whole entry G1349D): as the sequence (P13569 whole entry G551D) above, with D551G, G1349D counted along it
Description: as §1, §2, §3, §4

CFTR-S549N = target: T5, CFTR-S549N (Homo sapiens, UniProt P13569, S549N); assay: YFP-halide influx assay for the CFTR-S549N
T5 construct: expressed in transfected cells; HEK293 with plasmid vectors inferred from the G551D protocol, to which the assay is called similar
T5 sequence (P13569 whole entry S549N): as the sequence (P13569 whole entry G551D) above, with S549N, D551G counted along it
Description: as §1, §2, §3, §4

CFTR-R117H = target: T6, CFTR-R117H (Homo sapiens, UniProt P13569, R117H); assay: YFP-halide influx assay for the CFTR-R117H
T6 construct: expressed in transfected cells; HEK293 with plasmid vectors inferred from the G551D protocol, to which the assay is called similar
T6 sequence (P13569 whole entry R117H): as the sequence (P13569 whole entry G551D) above, with R117H, D551G counted along it
Description: as §1, §2, §3, §4

CFTR ΔF508 = target: T7, CFTR ΔF508 (Homo sapiens, UniProt P13569, DEL508-508); assay: TECC assay in CFTR ΔF508, primary bronchial epithelial cells; details: bronchial epithelial cells from CF patients homozygous for ΔF508, treated with 3 μM VX809 or 0.15 μM GLPG2222; increase in Isc after forskolin
T7 construct: bronchial epithelial cells isolated from CF patients homozygous for the CFTR ΔF508 mutation; host or cells: primary human bronchial epithelial cells (hAEC-CF) from CF patients homozygous for ΔF508, pre-treated with the corrector VX809 or GLPG2222
T7 sequence (P13569 with tags, fused parts or gaps DEL508-508): as the sequence (P13569 with tags, fused parts or gaps DEL508-508) above
Protocol: The TECC (Transepithelial Clamp Circuit, EP-design) assay measures the functionality of the cystic fibrosis Transmembrane Conductance regulator (CFTR) by measuring the short circuit current (ISC) generated over the basolateral and apical membrane of lung epithelial cells. In TECC the transepithelial potential PD and transepithelial resistance (Rt) are measured in an open circuit and transformed to ISC using Ohm's law. 24 Wells can be measured simultaneously allowing a higher throughput compared to Ussing chambers.
For this purpose, bronchial epithelial cells isolated from CF patients homozygous for the CFTR ΔF508 mutation (hAEC-CF, McGill, UNC) are plated on type IV collagen-coated Transwell® supports (Costar). Human airway epithelia are generated by provision of an air liquid interface for 21 days to form well-differentiated polarized cultures that resemble in vivo pseudo-stratified ciliated epithelium (Fulcher, M. L., Gabriel, S., Burns, K. A., Yankaskas, J. R., Randell, S. H., 2005. Well-differentiated human airway epithelial cell cultures. Methods Mol. Med. 107, 183-206). […]
When subjected to this protocol, the following values were obtained. The difference between ΔIsc measured as DMSO (baseline), and the ΔIsc measured with the compound tested.

| SMILES | % Activation (CFTR ΔF508 mutant) [%] | EC50 (CFTR ΔF508 mutant) [nM] | % Activation (CFTR G551D mutant) [%] | EC50 (CFTR G551D mutant) [nM] | % Activation (CFTR-G178R) [%] | EC50 (CFTR-G178R) [nM] | % Activation (CFTR-G1349D) [%] | EC50 (CFTR-G1349D) [nM] | % Activation (CFTR-S549N) [%] | EC50 (CFTR-S549N) [nM] | % Activation (CFTR-R117H) [%] | EC50 (CFTR-R117H) [nM] | EC50 (CFTR ΔF508) [nM] |
| --- | --- | --- | --- | --- | --- | --- | --- | --- | --- | --- | --- | --- | --- |
| CC(O)(c1nnc(-c2ncc(S(=O)(=O)c3ccc(OC(F)(F)F)cc3)cc2N)o1)C(F)(F)F (stereo not drawn) [Compound 3, 2-(5-{3-amino-5-[4-(trifluoromethoxy)benzene-1-sulfonyl]pyridin-2-yl}-1,3,4-oxadiazol-2-yl)-1,1,1-trifluoropropan-2-ol] | 120.51 | 2.36 | 49.0 | 181 | 57.4 | 1440 | 58.6 | 44.9 | 56.3 | 55.9 | 89.0 | 35.5 | – |
| Nc1cc(S(=O)(=O)c2ccc(OC(F)(F)F)cc2)cnc1-c1nnc(C(O)C(F)(F)F)o1 (stereo not drawn) [Compound 4, 1-(5-{3-amino-5-[4-(trifluoromethoxy)benzene-1-sulfonyl]pyridin-2-yl}-1,3,4-oxadiazol-2-yl)-2,2,2-trifluoroethan-1-ol] | 103.69 | 1.8 | 34.3 | > 6770 | – | – | – | – | – | – | – | – | 6 |
| Nc1cc(S(=O)(=O)c2ccc(OC(F)(F)F)cc2)cnc1-c1nnc(CO)o1 [Compound 1, (5-{3-amino-5-[4-(trifluoromethoxy)benzene-1-sulfonyl]pyridin-2-yl}-1,3,4-oxadiazol-2-yl)methanol] | 113.82 | 5.57 | 37.7 | > 10000 | 67.2 | 196 | 72.8 | 137 | 75.4 | 275 | 88.7 | 184 | 40 |
